From US7259140B2, “Heparin-binding peptides and uses thereof” (Thomas Jefferson University, priority 2003, dated 2007)
Bridge positions count the residues as written; N and C are the ends. Peptide text beside a SMILES is read from it.

Columns and labels:
[1] = system: Lovenox ® Activity in Blood from Patients Treated with Lovenox ®; experiment: Neutralizing Lovenox activity in blood from patients treated with Lovenox (anti-Factor Xa assay); format: biochemical, human; settings: Peptide 12 μg/ml
Summary of the method: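 Blood came from consenting volunteers already on Lovenox® therapy. Neutralizing peptides were tested as a dose response from 1–60 μg/ml. Each point is mean ± SD of triplicate analyses on one patient's blood sample.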

[2] = system: anti-Factor Xa Activity of Unfractionated Heparin; experiment: Anti-Factor Xa assay: neutralization of unfractionated heparin in citrate or plasma in vitro; format: biochemical, human; settings: UFH 0.7 U/ml
Summary of the method: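 Chromogenic anti-Factor Xa kit run with UFH, enoxaparin (Lovenox) or danaparoid (Orgaran) in 0.32% citrate or citrated plasma from three volunteers. Heparin/ATIII complex formed, peptide added, then Factor Xa and dye substrate; absorbance at 405 nm, inversely proportional to remaining anti-Factor Xa activity.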

[3] = Affinity coelectrophoresis (ACE) of peptide binding to radiolabeled low Mr heparin; set-up: species or system pig; settings: pH 7.0, mean and standard deviation of four assays, read-out: Kd (nM), affinity for low molecular weight heparin
Summary of the method: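 Trace ¹²⁵I-tyramine end-labelled low-Mr (≦6,000) pig mucosal heparin electrophoresed through 1% agarose lanes containing serially diluted peptides in 50 mM MOPSO/125 mM sodium acetate, pH 7.0, with CHAPS. Heparin mobility read by phosphorimager; retardation coefficients fitted to R=R∞/{1+(Kd/[peptide])^n} to give apparent Kd.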

C[C@@H]1NC(=O)[C@H](C)NC(=O)[C@H](CCCCN)NC(=O)[C@H](CCCCN)NC(=O)[C@H](CCCNC(=N)N)NC(=O)[C@H](C)NC(=O)[C@H](C)NC(=O)[C@H](CCCCN)NC(=O)[C@H](C)NC(=O)[C@H](C)NC(=O)[C@H](CCCCN)NC(=O)[C@H](CCCCN)NC(=O)[C@H](CCCNC(=N)N)NC(=O)[C@H](C)NC(=O)[C@@H](N)CSSC[C@@H](C(=O)O)NC(=O)[C@H](C)NC(=O)[C@H](CCCCN)NC(=O)[C@H](C)NC(=O)[C@H](C)NC(=O)[C@H](CCCCN)NC(=O)[C@H](CCCCN)NC(=O)[C@H](CCCNC(=N)N)NC(=O)[C@H](C)NC(=O)[C@H](C)NC(=O)[C@H](CCCCN)NC(=O)[C@H](C)NC(=O)[C@H](C)NC(=O)[C@H](CCCCN)NC(=O)[C@H](CCCCN)NC(=O)[C@H](CCCNC(=N)N)NC(=O)[C@H](C)NC(=O)[C@H](C)NC(=O)[C@H](CCCCN)NC1=O [C(ARKKAAKA)4C, cyclized C(ARKKAAKA)4C] (H-CARKKAAKAARKKAAKAARKKAAKAARKKAAKAC-OH; disulfide 1-34)
Lovenox ® Neutralized ([1]; blood of Lovenox-treated Patient Number 1): 0.164 U/ml | Lovenox ® Neutralized ([1]; blood of Lovenox-treated Patient Number 2): 0.132 U/ml | Lovenox ® Neutralized ([1]; blood of Lovenox-treated Patient Number 3): 0.119 U/ml | Lovenox ® Neutralized ([1]; blood of Lovenox-treated Patient Number 4): 0.337 U/ml | Lovenox ® Neutralized ([1]; blood of Lovenox-treated Patient Number 5): 0.230 U/ml | Lovenox ® Neutralized ([1]; blood of Lovenox-treated Patient Number 8): 0.163 U/ml | Lovenox ® Neutralized ([1]; blood of Lovenox-treated Patient Number 9): 0.418 U/ml | Lovenox ® Neutralized ([1]; blood of Lovenox-treated Patient Number 10): 0.302 U/ml | Lovenox ® Neutralized ([1]; blood of Lovenox-treated Patient Number 11): 0.175 U/ml | Unfractionated Heparin Neutralized ([2]; 1 μg/ml Peptide, A Plasma): 0.157 ± 0.032 U/ml | Unfractionated Heparin Neutralized ([2]; 1 μg/ml Peptide, B Plasma): 0.194 ± 0.066 U/ml | Unfractionated Heparin Neutralized ([2]; 1 μg/ml Peptide, C Plasma): 0.078 ± 0.027 U/ml | Unfractionated Heparin Neutralized ([2]; 1 μg/ml Peptide, Citrate): 0.131 ± 0.070 U/ml | Unfractionated Heparin Neutralized ([2]; 6 μg/ml Peptide, A Plasma): 0.442 ± 0.031 U/ml | Unfractionated Heparin Neutralized ([2]; 6 μg/ml Peptide, B Plasma): 0.426 ± 0.064 U/ml | Unfractionated Heparin Neutralized ([2]; 6 μg/ml Peptide, C Plasma): 0.447 ± 0.054 U/ml | Unfractionated Heparin Neutralized ([2]; 6 μg/ml Peptide, Citrate): 0.590 ± 0.024 U/ml | Unfractionated Heparin Neutralized ([2]; 12 μg/ml Peptide, A Plasma): 0.579 ± 0.128 U/ml | Unfractionated Heparin Neutralized ([2]; 12 μg/ml Peptide, B Plasma): 0.552 ± 0.056 U/ml | Unfractionated Heparin Neutralized ([2]; 12 μg/ml Peptide, C Plasma): 0.583 ± 0.066 U/ml | Unfractionated Heparin Neutralized ([2]; 12 μg/ml Peptide, Citrate): 0.560 ± 0.012 U/ml | Unfractionated Heparin Neutralized ([2]; 60 μg/ml Peptide, A Plasma): 0.605 ± 0.088 U/ml | Unfractionated Heparin Neutralized ([2]; 60 μg/ml Peptide, B Plasma): 0.566 ± 0.036 U/ml | Unfractionated Heparin Neutralized ([2]; 60 μg/ml Peptide, C Plasma): 0.572 ± 0.076 U/ml | Unfractionated Heparin Neutralized ([2]; 60 μg/ml Peptide, Citrate): 0.560 ± 0.018 U/ml | Unfractionated Heparin Neutralized ([2]; 120 μg/ml Peptide, A Plasma): 0.618 ± 0.051 U/ml | Unfractionated Heparin Neutralized ([2]; 120 μg/ml Peptide, B Plasma): 0.512 ± 0.032 U/ml | Unfractionated Heparin Neutralized ([2]; 120 μg/ml Peptide, C Plasma): 0.580 ± 0.051 U/ml | Unfractionated Heparin Neutralized ([2]; 120 μg/ml Peptide, Citrate): 0.530 ± 0.019 U/ml | Kd [3]: 38 ± 13 nM
